# Results as given in ChEMBL document CHEMBL6115036, “Exploration of membrane-active cephalosporin derivatives as potent antibacterial agents against Staphylococcus aureus biofilms and persisters” (Eur J Med Chem, 2025).
# Activity calls are given as the source filed them. The calls are words filed in the database; no cut-off is given here.
# Tests used:
# [1] = tested on: Escherichia coli; test: Antimicrobial activity against Escherichia coli incubated for 16 to 18 hrs by broth dilution assay; format: functional; conditions: time 16-18 hrs
# [2] = tested on: Stenotrophomonas maltophilia; test: Antimicrobial activity against Stenotrophomonas maltophilia incubated for 16 to 18 hrs by broth dilution assay; format: functional; conditions: time 16-18 hrs
# [3] = tested on: Staphylococcus aureus; test: Antimicrobial activity against Staphylococcus aureus incubated for 16 to 18 hrs by broth dilution assay; format: functional; conditions: time 16-18 hrs
# [4] = tested on: Enterococcus faecalis; test: Antimicrobial activity against Enterococcus faecalis incubated for 16 to 18 hrs by broth dilution assay; format: functional; conditions: time 16-18 hrs
# [5] = tested on: Staphylococcus aureus; test: Induction of cytoplasmic membrane depolarization in Staphylococcus aureus assessed as increase in fluorescence intensity at 16 ug/ml measured for 20 mins by DiSC3(5) dye based analysis; format: functional, organism-based; conditions: dose 16.0 µg/ml
# [6] = tested on: Staphylococcus aureus; test: Induction of inner membrane permeability in Staphylococcus aureus assessed as increase in fluorescence intensity at 16 ug/ml measured for 20 mins by PI dye based analysis; format: functional, organism-based; conditions: dose 16.0 µg/ml
# [7] = Hemolytic activity in sheep red blood cells incubated for 1 hr; format: toxicity, cell-based, Ovis aries, Erythrocyte
MIC [1] [µg/mL],MIC [2] [µg/mL],MIC [3] [µg/mL],MIC [4] [µg/mL],SMILES,Activity [5],Activity [6],HC50 at 1 h [7] [µg/mL]
–,–,0.25,–,CCCCCCCCNC(=O)c1cc[n+](CC2=C(C(=O)OCc3ccc(OC)cc3)N3C(=O)[C@@H](NC(=O)Cc4ccccc4)[C@H]3SC2)cc1.[I-],Active,Active,–
64,128,0.125,32,CCCCNC(=O)c1ccc[n+](CC2=C(C(=O)O)N3C(=O)[C@@H](NC(=O)Cc4ccccc4)[C@H]3SC2)c1.[I-],–,–,> 1280
–,–,0.25,–,COc1ccc(COC(=O)C2=C(C[n+]3ccccc3)CS[C@@H]3[C@H](NC(=O)Cc4ccccc4)C(=O)N23)cc1.[I-],–,–,–
32,64,0.125,32,CCCCNC(=O)c1cc[n+](CC2=C(C(=O)O)N3C(=O)[C@@H](NC(=O)Cc4ccccc4)[C@H]3SC2)cc1.[I-],–,–,> 1280
64,64,0.5,64,CCCCCC[n+]1ccc(-c2cc[n+](CC3=C(C(=O)OCc4ccc(OC)cc4)N4C(=O)[C@@H](NC(=O)Cc5ccccc5)[C@H]4SC3)cc2)cc1.[I-].[I-],–,–,> 1280
–,–,0.25,–,CCCCNC(=O)c1ccc[n+](CC2=C(C(=O)OCc3ccc(OC)cc3)N3C(=O)[C@@H](NC(=O)Cc4ccccc4)[C@H]3SC2)c1.[I-],–,–,–
–,–,0.25,–,CCCCCCCCCCNC(=O)c1ccc[n+](CC2=C(C(=O)OCc3ccc(OC)cc3)N3C(=O)[C@@H](NC(=O)Cc4ccccc4)[C@H]3SC2)c1.[I-],Active,Active,–
> 128,> 128,128,> 128,CC(=O)OCC1=C(C(=O)OC(c2ccccc2)c2ccccc2)N2C(=O)[C@@H](NC(=O)c3cc[n+](C)cc3)[C@H]2SC1.[I-],–,–,–
–,–,0.25,–,CCCCNC(=O)c1cc[n+](CC2=C(C(=O)OCc3ccc(OC)cc3)N3C(=O)[C@@H](NC(=O)Cc4ccccc4)[C@H]3SC2)cc1.[I-],–,–,–
> 128,> 128,16,> 128,CC(=O)OCC1=C(C(=O)O)N2C(=O)[C@@H](NC(=O)c3ccncc3)[C@H]2SC1,–,–,–
64,64,0.125,16,CCCCCCNC(=O)c1ccc[n+](CC2=C(C(=O)O)N3C(=O)[C@@H](NC(=O)Cc4ccccc4)[C@H]3SC2)c1.[I-],–,–,> 1280
–,–,0.25,–,CCCCCCCCCCCCNC(=O)c1ccc[n+](CC2=C(C(=O)OCc3ccc(OC)cc3)N3C(=O)[C@@H](NC(=O)Cc4ccccc4)[C@H]3SC2)c1.[I-],–,–,–
–,–,0.25,–,CCCCCCCCNC(=O)c1ccc[n+](CC2=C(C(=O)OCc3ccc(OC)cc3)N3C(=O)[C@@H](NC(=O)Cc4ccccc4)[C@H]3SC2)c1.[I-],Active,Active,–
–,–,0.25,–,CCCCCCCCCCCCCCNC(=O)c1ccc[n+](CC2=C(C(=O)OCc3ccc(OC)cc3)N3C(=O)[C@@H](NC(=O)Cc4ccccc4)[C@H]3SC2)c1.[I-],–,–,–
–,–,0.25,–,CCCCCCCCCCNC(=O)c1cc[n+](CC2=C(C(=O)OCc3ccc(OC)cc3)N3C(=O)[C@@H](NC(=O)Cc4ccccc4)[C@H]3SC2)cc1.[I-],Active,Active,–
> 128,> 128,128,128,CCCC[n+]1ccc(C(=O)N[C@@H]2C(=O)N3C(C(=O)OC(c4ccccc4)c4ccccc4)=C(COC(C)=O)CS[C@H]23)cc1.[I-],–,–,–
128,128,0.5,32,CCCCCCCC[n+]1ccc(-c2cc[n+](CC3=C(C(=O)OCc4ccc(OC)cc4)N4C(=O)[C@@H](NC(=O)Cc5ccccc5)[C@H]4SC3)cc2)cc1.[I-].[I-],–,–,> 1280
> 128,> 128,> 128,> 128,CCCC[n+]1ccc(C(=O)N[C@@H]2C(=O)N3C(C(=O)O)=C(COC(C)=O)CS[C@H]23)cc1.[I-],–,–,–
> 128,> 128,128,> 128,CC(=O)OCC1=C(C(=O)O)N2C(=O)[C@@H](NC(=O)c3cc[n+](C)cc3)[C@H]2SC1.[I-],–,–,–
–,–,0.25,–,CCCCCCNC(=O)c1ccc[n+](CC2=C(C(=O)OCc3ccc(OC)cc3)N3C(=O)[C@@H](NC(=O)Cc4ccccc4)[C@H]3SC2)c1.[I-],–,–,–
64,64,0.063,16,O=C(Cc1ccccc1)N[C@@H]1C(=O)N2C(C(=O)O)=C(CSc3ccncc3)CS[C@H]12,–,–,–
–,–,0.25,–,CCCCCCNC(=O)c1cc[n+](CC2=C(C(=O)OCc3ccc(OC)cc3)N3C(=O)[C@@H](NC(=O)Cc4ccccc4)[C@H]3SC2)cc1.[I-],–,–,–
64,64,0.125,16,CCCCCCNC(=O)c1cc[n+](CC2=C(C(=O)O)N3C(=O)[C@@H](NC(=O)Cc4ccccc4)[C@H]3SC2)cc1.[I-],–,–,> 1280
0.031,0.031,–,–,C[C@@H](O)[C@H]1C(=O)N2C(C(=O)O)=C(S[C@@H]3CN[C@H](C(=O)N(C)C)C3)[C@H](C)[C@H]12 [MEROPENEM],–,–,> 1280
> 128,> 128,128,128,CCCCCCCCCC[n+]1ccc(C(=O)N[C@@H]2C(=O)N3C(C(=O)O)=C(COC(C)=O)CS[C@H]23)cc1.[I-],–,–,–

SMILES,MIC [1] [µg/mL],MIC [2] [µg/mL],MIC [3] [µg/mL],MIC [4] [µg/mL],Activity [5],Activity [6],HC50 at 1 h [7] [µg/mL]
CC[n+]1ccc(SCC2=C(C(=O)O)N3C(=O)[C@@H](NC(=O)Cc4ccccc4)[C@H]3SC2)cc1.O=C([O-])C(F)(F)F,8,8,0.063,8,–,–,–
CCCCCC[n+]1ccc(-c2cc[n+](CC3=C(C(=O)[O-])N4C(=O)[C@@H](NC(=O)Cc5ccccc5)[C@H]4SC3)cc2)cc1.O=C([O-])C(F)(F)F,16,16,0.125,16,–,–,> 1280
CC[n+]1ccc(SCC2=C(C(=O)OCc3ccc(OC)cc3)N3C(=O)[C@@H](NC(=O)Cc4ccccc4)[C@H]3SC2)cc1.O=C([O-])C(F)(F)F,16,16,0.125,16,–,–,–
CCCC[n+]1ccc(SCC2=C(C(=O)OCc3ccc(OC)cc3)N3C(=O)[C@@H](NC(=O)Cc4ccccc4)[C@H]3SC2)cc1.O=C([O-])C(F)(F)F,16,32,0.125,16,–,–,–
CCCCCC[n+]1ccc(SCC2=C(C(=O)O)N3C(=O)[C@@H](NC(=O)Cc4ccccc4)[C@H]3SC2)cc1.O=C([O-])C(F)(F)F,32,32,0.063,8,–,–,–
CCCCCC[n+]1ccc(SCC2=C(C(=O)OCc3ccc(OC)cc3)N3C(=O)[C@@H](NC(=O)Cc4ccccc4)[C@H]3SC2)cc1.O=C([O-])C(F)(F)F,64,64,0.063,16,–,–,–
CCCCCCCC[n+]1ccc(-c2cc[n+](CC3=C(C(=O)[O-])N4C(=O)[C@@H](NC(=O)Cc5ccccc5)[C@H]4SC3)cc2)cc1.O=C([O-])C(F)(F)F,64,64,0.125,16,–,–,> 1280
CCCC[n+]1ccc(SCC2=C(C(=O)O)N3C(=O)[C@@H](NC(=O)Cc4ccccc4)[C@H]3SC2)cc1.O=C([O-])C(F)(F)F,4,8,0.063,8,–,–,–
